# Target: human TRPV4 (Homo sapiens (Human), UniProt Q9HBA0)
# Test: Test Example 3: measurement of TRPV4 inhibitory activity (Fluo-3, FDSS 3000, 4α-PDD)
# Assay type: cell-based
# Conditions: hTRPV4/CHO cells, calculated from IC50 and 4α-PDD EC50
# Procedure: For each compound, TRPV4 inhibitory activity was measured using cells.
# (1) The TRPV4 inhibitory activity was measured using CHO-K1 cells stably expressing human TRPV4 (hTRPV4/CHO cells).
# (2) Frozen cells were thawed and subcultured with the medium (MEM-α, 10% FBS, […], 50 unit/mL penicillin, 50 μg/mL streptomycin, 1 mg/mL G418).
# (3) The 96-well plates which hTRPV4/CHO cells were seeded at densities of 2×10^4 cells/well in the culture medium and cultured in a CO2 incubator in the presence of 5% CO2 at 37° C. for 24 h was used as assay plates.
# (4) The assay plate was washed with assay buffer (Hanks, […], […], pH7.4).
# (5) Fluo-3, fluorescent dye for Ca influx assay was added to each well, then the assay plate was incubated in a CO2 incubator in the presence of 5% CO2 at 37° C. for one hour (final conc.; 5 μmmol/L Fluo-3).
# (6) The assay plate was washed with the assay buffer, and the buffer was remained at 30 μL/well. Then the assay plate was incubated for 10 min at 37° C.
# (7) Diluted compound solution was dispensed to each well in the compound plate, and mixed with built-in Pipette and Mixer of the fluorescence analysis system FDSS 3000 (Hamamatsu Photonics).
# (8) 50 μL of 4α-PDD solution (concluding 0.1% Pluronic F-127) was applied to each well of assay plate and mixed.
# (9) The fluorescent intensity was measured by FDSS 3000 for 8 min from the point of time addition the compound solution, at Ex 480 nm, Em 540 nm wavelength.
# TRPV4 inhibitory activity (Ki value) of a compound was evaluated according to the following procedure.
# (10) In the presence of the compound, the difference between maximal and minimal of fluorescent intensity value for 8 min from just before addition of 4α-PDD solution was calculated, and it was referred as Max-Min value. Max-Min value of the Ruthenium Red at 10 μM was defined as 100% inhibitory activity, Max-Min value in the absence of the compound was defined as 0% inhibitory activity. The TRPV4 inhibitory activity of the compound was calculated by the following formula. (1−(Max-Min value of the compound−100% inhibitory activity)/(0% inhibitory activity−100% inhibitory activity))×100 (11) By the following formula, inhibitory activity was calculated at 10 points with three fold serial dilution, in the final concentration of the compound from 10 μmmol/L to 0.5 nmol/L. The IC50 value was calculated by dose-response curve. 100−[(fluorescent intensity in the presence of the compound−fluorescent intensity of back ground)/(total fluorescent intensity−fluorescent intensity of back ground)]×100 (12) In the presence of the compound, activity of 4α-PDD was measured at 9 points with three fold serial dilution from 20 μmol/L. Activity of 4α-PDD was calculated by the following formula. (Max-Min value of the each 4α-PDD concentration−0% activity)/(100% activity−0% activity))×100 (13) Effective activity was calculated in 4α-PDD the above. The EC50 value was calculated by dose-response curve. (14) The Ki value of a compound was calculated by the following formula. Ki (nmol/L)=IC50 value (nmol/L)/([A]/EC50 value (nmol/L)) [A]; Concentration of agonist (nmol/L)
# human TRPV4, sequence (Q9HBA0 whole entry): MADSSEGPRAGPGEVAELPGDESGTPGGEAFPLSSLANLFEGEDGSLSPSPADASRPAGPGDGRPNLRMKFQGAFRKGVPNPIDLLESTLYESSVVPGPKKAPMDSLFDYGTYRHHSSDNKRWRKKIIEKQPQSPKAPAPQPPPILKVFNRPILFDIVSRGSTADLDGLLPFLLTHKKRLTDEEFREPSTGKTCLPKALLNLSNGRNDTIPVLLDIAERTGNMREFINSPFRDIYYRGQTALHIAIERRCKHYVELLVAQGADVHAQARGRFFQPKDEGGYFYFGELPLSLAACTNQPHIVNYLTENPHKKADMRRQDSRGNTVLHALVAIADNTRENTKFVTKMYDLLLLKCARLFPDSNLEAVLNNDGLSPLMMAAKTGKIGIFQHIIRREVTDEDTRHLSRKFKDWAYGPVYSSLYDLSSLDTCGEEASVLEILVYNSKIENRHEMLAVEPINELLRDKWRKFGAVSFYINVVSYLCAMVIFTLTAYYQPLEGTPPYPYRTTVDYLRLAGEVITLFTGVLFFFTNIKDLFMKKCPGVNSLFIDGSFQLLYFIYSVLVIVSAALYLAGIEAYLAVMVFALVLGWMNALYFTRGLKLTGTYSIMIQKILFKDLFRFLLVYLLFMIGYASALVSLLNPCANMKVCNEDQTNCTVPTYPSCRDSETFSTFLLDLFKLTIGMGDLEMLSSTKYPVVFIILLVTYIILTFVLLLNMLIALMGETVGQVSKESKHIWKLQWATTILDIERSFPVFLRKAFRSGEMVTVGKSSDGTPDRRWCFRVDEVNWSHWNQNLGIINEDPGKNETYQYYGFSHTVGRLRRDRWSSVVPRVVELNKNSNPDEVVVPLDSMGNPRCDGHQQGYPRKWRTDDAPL
row,SMILES,Ki
1,Cc1c(C(=O)OCc2ccccc2)cc(C(C)(C)C)n1CCCN1CCOCC1 [Compound I-001],3960 nM
2,Cc1c(C(=O)Nc2cccc(C(F)(F)F)c2)cc(-c2ccccc2)n1CCCNc1ccccc1 [Compound I-011],1700 nM
3,Cc1c(C(=O)Nc2cccc(C(F)(F)F)c2)cc(-c2ccccc2)n1CCCN(C)c1ccccc1 [Compound I-012],1140 nM
4,Cc1c(C(=O)Nc2cccc(Cl)c2)cc(-c2ccccc2)n1CCCN1CCOCC1 [Compound I-013],453 nM
5,Cc1c(C(=O)Nc2nc3ccccc3s2)cc(-c2ccccc2)n1CCCN1CCOCC1 [Compound I-020],992 nM
6,Cc1c(C(=O)Nc2cccc(C(C)C)c2)cc(-c2ccccc2)n1CCCN1CCOCC1 [Compound I-029],519 nM
7,Cc1c(C(=O)Nc2cccc(C(F)(F)F)c2)cc(-c2ccccc2)n1CCCN(C)C(=O)OC(C)(C)C [Compound I-030],701 nM
8,Cc1c(C(=O)Nc2cccc(C(F)(F)F)c2)cc(-c2ccccc2)n1CCCN(C)CCOCc1ccccc1 [Compound I-034],2620 nM
9,Cc1c(C(=O)Nc2cccc(C(F)(F)F)c2)cc(-c2ccccc2)n1CCCN(C)CC1CCOC1 (centres unmarked) [Compound I-036],1000 nM
10,CCOC(=O)C1CC1CN(C)CCCn1c(-c2ccccc2)cc(C(=O)Nc2cccc(C(F)(F)F)c2)c1C (centres unmarked) [Compound I-037],1800 nM
11,Cc1c(C(=O)Nc2cccc(C(F)(F)F)c2)cc(-c2ccccc2)n1CCCN(C)CC1CCOCC1 [Compound I-040],1140 nM
12,COC(=O)CCCN(C)CCCn1c(-c2ccccc2)cc(C(=O)Nc2cccc(C(F)(F)F)c2)c1C [Compound I-041],988 nM
13,Cc1c(C(=O)Nc2cccc(C(F)(F)F)c2)cc(-c2ccccc2)n1CCCN(C)C(=O)C1CCCCC1 [Compound I-042],1120 nM
14,Cc1c(C(=O)Nc2cccc(C(F)(F)F)c2)cc(-c2ccccc2)n1CCCN(C)C(=O)c1ccco1 [Compound I-043],1380 nM
15,Cc1c(C(=O)Nc2cccc(C(F)(F)F)c2)cc(-c2ccccc2)n1CCCN(C)C(=O)c1cccs1 [Compound I-044],844 nM
16,COCC(=O)N(C)CCCn1c(-c2ccccc2)cc(C(=O)Nc2cccc(C(F)(F)F)c2)c1C [Compound I-045],1720 nM
17,Cc1c(C(=O)Nc2cccc(C(F)(F)F)c2)cc(-c2ccccc2)n1CCCN(C)C(=O)Cc1cccs1 [Compound I-046],1680 nM

# More lines, now with the values ahead:
row,Ki,SMILES
1,320 nM,Cc1c(C(=O)Nc2cccc(C(F)(F)F)c2)cc(-c2ccccc2)n1CCCN(C)C(=O)c1ccncc1 [Compound I-047]
2,1310 nM,Cc1c(C(=O)Nc2cccc(C(F)(F)F)c2)cc(-c2ccccc2)n1CCCN(C)C(=O)c1ccc2c(c1)OCO2 [Compound I-048]
3,1140 nM,COCCOCC(=O)N(C)CCCn1c(-c2ccccc2)cc(C(=O)Nc2cccc(C(F)(F)F)c2)c1C [Compound I-050]
4,590 nM,Cc1c(C(=O)Nc2cccc(C(F)(F)F)c2)cc(-c2ccccc2)n1CCCN(C)C(=O)C(C)C [Compound I-051]
5,707 nM,Cc1c(C(=O)Nc2cccc(C(F)(F)F)c2)cc(-c2ccccc2)n1CCCN(C)C(=O)C1CC1 [Compound I-052]
6,978 nM,Cc1c(C(=O)Nc2cccc(C(F)(F)F)c2)cc(-c2ccccc2)n1CCCN(C)C(=O)c1cccnc1 [Compound I-053]
7,1160 nM,Cc1c(C(=O)Nc2cccc(C(F)(F)F)c2)cc(-c2ccccc2)n1CCCN(C)C(=O)c1ccccn1 [Compound I-054]
8,984 nM,Cc1c(C(=O)Nc2cccc(C(F)(F)F)c2)cc(-c2ccccc2)n1CCCN(C)C(=O)c1ccc2ccccc2n1 [Compound I-055]
9,560 nM,CC(=O)Nc1ccc(C(=O)N(C)CCCn2c(-c3ccccc3)cc(C(=O)Nc3cccc(C(F)(F)F)c3)c2C)cc1 [Compound I-056]
10,1790 nM,CC(=O)N1CCC(C(=O)N(C)CCCn2c(-c3ccccc3)cc(C(=O)Nc3cccc(C(F)(F)F)c3)c2C)CC1 [Compound I-057]
11,1650 nM,Cc1c(C(=O)Nc2cccc(C(F)(F)F)c2)cc(-c2ccccc2)n1CCCN(C)C(=O)c1ccc2occc2c1 [Compound I-058]
12,472 nM,Cc1c(C(=O)Nc2cccc(C(F)(F)F)c2)cc(-c2ccccc2)n1CCCN(C)C(=O)C1CCC1 [Compound I-059]
13,1350 nM,Cc1c(C(=O)Nc2cccc(C(F)(F)F)c2)cc(-c2ccccc2)n1CCCN(C)C(=O)c1ccc(N(C)C)cc1 [Compound I-060]
14,1700 nM,Cc1c(C(=O)Nc2cccc(C(F)(F)F)c2)cc(-c2ccccc2)n1CCCN(C)C(=O)c1csc(-c2ccccc2)n1 [Compound I-061]
15,1390 nM,Cc1c(C(=O)Nc2cccc(C(F)(F)F)c2)cc(-c2ccccc2)n1CCCN(C)C(=O)c1csc(-c2cccs2)n1 [Compound I-062]
16,713 nM,Cc1c(C(=O)Nc2cccc(C(F)(F)F)c2)cc(-c2ccccc2)n1CCCN(C)C(=O)C(Cl)(Cl)Cl [Compound I-064]
17,850 nM,COc1ccc(OC)c(CC(=O)N(C)CCCn2c(-c3ccccc3)cc(C(=O)Nc3cccc(C(F)(F)F)c3)c2C)c1 [Compound I-065]
18,662 nM,Cc1c(C(=O)Nc2cccc(C(F)(F)F)c2)cc(-c2ccccc2)n1CCCN(C)C(=O)c1cnc2ccccc2n1 [Compound I-066]
19,2370 nM,Cc1c(C(=O)Nc2cccc(C(F)(F)F)c2)cc(-c2ccccc2)n1CCCN(C)C(=O)C(=O)c1c[nH]c2ccccc12 [Compound I-067]
20,1010 nM,Cc1c(C(=O)Nc2cccc(C(F)(F)F)c2)cc(-c2ccccc2)n1CCCN(C)C(=O)C1CCOCC1 [Compound I-068]
21,816 nM,Cc1c(C(=O)Nc2cccc(C(F)(F)F)c2)cc(-c2ccccc2)n1CCCN(C)C(=O)c1cccc(N(C)C)c1 [Compound I-069]
